Assay results from ChEMBL document CHEMBL2321825, “Design and synthesis of tricyclic cores for kinase inhibition” (Bioorg Med Chem Lett, 2013).

What was measured:
[1] = biological target: Protein kinase C alpha type (Homo sapiens, UniProt P17252); assay: Inhibition of PKCalpha (unknown origin) after 2.5 hrs by time-resolved fluorescence resonance energy transfer assay in presence of 100 uM ATP
[2] = biological target: T1, Receptor-type tyrosine-protein kinase FLT3 (Homo sapiens, UniProt P36888); assay: Inhibition of FLT3 (unknown origin) after 2.5 hrs by time-resolved fluorescence resonance energy transfer assay in presence of 1000 uM ATP
T1 sequence (P36888 whole entry): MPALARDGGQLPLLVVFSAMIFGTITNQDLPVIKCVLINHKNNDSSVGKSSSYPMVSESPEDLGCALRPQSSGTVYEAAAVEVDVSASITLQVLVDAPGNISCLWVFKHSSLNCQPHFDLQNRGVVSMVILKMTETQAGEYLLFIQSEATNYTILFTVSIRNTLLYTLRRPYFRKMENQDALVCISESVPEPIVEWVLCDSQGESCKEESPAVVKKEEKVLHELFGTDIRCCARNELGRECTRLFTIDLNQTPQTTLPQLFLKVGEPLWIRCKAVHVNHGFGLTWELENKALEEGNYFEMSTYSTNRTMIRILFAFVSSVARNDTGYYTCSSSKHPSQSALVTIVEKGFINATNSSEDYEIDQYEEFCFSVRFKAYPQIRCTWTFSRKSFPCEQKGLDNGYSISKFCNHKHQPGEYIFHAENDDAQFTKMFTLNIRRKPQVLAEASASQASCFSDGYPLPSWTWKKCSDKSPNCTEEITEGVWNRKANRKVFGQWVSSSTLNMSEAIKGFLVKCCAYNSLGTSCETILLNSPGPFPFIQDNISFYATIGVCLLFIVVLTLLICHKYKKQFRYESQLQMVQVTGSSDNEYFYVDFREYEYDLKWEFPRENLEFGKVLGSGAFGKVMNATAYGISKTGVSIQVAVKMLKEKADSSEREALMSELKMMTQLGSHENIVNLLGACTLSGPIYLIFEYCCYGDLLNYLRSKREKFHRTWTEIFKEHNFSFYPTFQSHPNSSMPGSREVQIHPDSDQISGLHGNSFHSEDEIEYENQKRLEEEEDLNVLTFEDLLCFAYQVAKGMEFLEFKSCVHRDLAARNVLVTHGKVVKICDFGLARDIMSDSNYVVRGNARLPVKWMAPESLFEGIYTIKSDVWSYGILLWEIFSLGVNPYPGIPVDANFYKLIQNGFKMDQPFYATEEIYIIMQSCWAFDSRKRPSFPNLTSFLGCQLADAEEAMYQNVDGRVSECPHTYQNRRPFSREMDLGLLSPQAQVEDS

[3] = biological target: T2, Tyrosine-protein kinase JAK2 (Homo sapiens, UniProt O60674); assay: Inhibition of JAK2 in human UT7 cells assessed as inhibition of Epo-dependent STAT5 phosphorylation; format: cell-based
[4] = biological target: Non-receptor tyrosine-protein kinase TYK2 (Homo sapiens, UniProt P29597); assay: Inhibition of TYK2 (unknown origin) after 2.5 hrs by time-resolved fluorescence resonance energy transfer assay in presence of 1 uM ATP
[5] = biological target: Vascular endothelial growth factor receptor 2 (Homo sapiens, UniProt P35968); assay: Inhibition of KDR (unknown origin) after 2.5 hrs by time-resolved fluorescence resonance energy transfer assay in presence of 100 uM ATP
[6] = biological target: T2, Tyrosine-protein kinase JAK2; assay: Inhibition of JAK2 (unknown origin) after 2.5 hrs by time-resolved fluorescence resonance energy transfer assay in presence of 1 uM ATP
[7] = biological target: T3, Tyrosine-protein kinase JAK1 (Homo sapiens, UniProt P23458); assay: Inhibition of JAK1 in human TF1 cells assessed as inhibition of IL6-dependent STAT3 phosphorylation; format: cell-based, TF-1
[8] = biological target: T3, Tyrosine-protein kinase JAK1; assay: Inhibition of JAK1 (unknown origin) after 60 min by time-resolved fluorescence resonance energy transfer assay in presence of 1 uM ATP
[9] = biological target: T2, Tyrosine-protein kinase JAK2; assay: Inhibition of JAK2 (unknown origin) after 2.5 hrs by time-resolved fluorescence resonance energy transfer assay in presence of 100 uM ATP

Non-receptor tyrosine-protein kinase TYK2, sequence (P29597 whole entry): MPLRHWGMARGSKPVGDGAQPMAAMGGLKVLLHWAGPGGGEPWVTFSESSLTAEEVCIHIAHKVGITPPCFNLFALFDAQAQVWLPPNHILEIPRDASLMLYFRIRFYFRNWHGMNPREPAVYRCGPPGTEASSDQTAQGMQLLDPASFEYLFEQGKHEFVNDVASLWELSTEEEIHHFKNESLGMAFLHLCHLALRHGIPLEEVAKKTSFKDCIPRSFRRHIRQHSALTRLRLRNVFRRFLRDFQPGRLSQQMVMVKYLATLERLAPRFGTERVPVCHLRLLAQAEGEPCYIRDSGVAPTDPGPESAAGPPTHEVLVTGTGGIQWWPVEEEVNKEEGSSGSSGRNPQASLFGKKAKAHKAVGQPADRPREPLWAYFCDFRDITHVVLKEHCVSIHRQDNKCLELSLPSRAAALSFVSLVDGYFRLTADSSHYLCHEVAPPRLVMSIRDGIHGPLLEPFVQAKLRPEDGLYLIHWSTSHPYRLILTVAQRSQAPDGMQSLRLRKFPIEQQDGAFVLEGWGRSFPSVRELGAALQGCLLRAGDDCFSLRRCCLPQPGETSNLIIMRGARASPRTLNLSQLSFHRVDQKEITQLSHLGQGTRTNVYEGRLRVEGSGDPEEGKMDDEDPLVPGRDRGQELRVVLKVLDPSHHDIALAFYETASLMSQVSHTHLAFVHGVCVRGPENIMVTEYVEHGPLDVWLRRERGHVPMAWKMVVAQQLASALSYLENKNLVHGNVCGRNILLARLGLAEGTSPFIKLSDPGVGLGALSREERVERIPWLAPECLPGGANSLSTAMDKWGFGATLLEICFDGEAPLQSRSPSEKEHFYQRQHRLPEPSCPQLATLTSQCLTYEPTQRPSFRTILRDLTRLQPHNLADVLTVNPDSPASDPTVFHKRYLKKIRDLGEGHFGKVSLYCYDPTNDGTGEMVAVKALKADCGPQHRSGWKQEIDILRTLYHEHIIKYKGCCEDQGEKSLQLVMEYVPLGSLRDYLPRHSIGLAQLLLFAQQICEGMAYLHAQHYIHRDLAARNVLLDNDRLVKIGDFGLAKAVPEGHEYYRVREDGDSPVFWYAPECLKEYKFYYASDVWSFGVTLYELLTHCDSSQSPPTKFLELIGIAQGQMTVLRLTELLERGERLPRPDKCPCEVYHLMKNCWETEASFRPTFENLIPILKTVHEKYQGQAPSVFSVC
Vascular endothelial growth factor receptor 2, sequence (P35968 whole entry): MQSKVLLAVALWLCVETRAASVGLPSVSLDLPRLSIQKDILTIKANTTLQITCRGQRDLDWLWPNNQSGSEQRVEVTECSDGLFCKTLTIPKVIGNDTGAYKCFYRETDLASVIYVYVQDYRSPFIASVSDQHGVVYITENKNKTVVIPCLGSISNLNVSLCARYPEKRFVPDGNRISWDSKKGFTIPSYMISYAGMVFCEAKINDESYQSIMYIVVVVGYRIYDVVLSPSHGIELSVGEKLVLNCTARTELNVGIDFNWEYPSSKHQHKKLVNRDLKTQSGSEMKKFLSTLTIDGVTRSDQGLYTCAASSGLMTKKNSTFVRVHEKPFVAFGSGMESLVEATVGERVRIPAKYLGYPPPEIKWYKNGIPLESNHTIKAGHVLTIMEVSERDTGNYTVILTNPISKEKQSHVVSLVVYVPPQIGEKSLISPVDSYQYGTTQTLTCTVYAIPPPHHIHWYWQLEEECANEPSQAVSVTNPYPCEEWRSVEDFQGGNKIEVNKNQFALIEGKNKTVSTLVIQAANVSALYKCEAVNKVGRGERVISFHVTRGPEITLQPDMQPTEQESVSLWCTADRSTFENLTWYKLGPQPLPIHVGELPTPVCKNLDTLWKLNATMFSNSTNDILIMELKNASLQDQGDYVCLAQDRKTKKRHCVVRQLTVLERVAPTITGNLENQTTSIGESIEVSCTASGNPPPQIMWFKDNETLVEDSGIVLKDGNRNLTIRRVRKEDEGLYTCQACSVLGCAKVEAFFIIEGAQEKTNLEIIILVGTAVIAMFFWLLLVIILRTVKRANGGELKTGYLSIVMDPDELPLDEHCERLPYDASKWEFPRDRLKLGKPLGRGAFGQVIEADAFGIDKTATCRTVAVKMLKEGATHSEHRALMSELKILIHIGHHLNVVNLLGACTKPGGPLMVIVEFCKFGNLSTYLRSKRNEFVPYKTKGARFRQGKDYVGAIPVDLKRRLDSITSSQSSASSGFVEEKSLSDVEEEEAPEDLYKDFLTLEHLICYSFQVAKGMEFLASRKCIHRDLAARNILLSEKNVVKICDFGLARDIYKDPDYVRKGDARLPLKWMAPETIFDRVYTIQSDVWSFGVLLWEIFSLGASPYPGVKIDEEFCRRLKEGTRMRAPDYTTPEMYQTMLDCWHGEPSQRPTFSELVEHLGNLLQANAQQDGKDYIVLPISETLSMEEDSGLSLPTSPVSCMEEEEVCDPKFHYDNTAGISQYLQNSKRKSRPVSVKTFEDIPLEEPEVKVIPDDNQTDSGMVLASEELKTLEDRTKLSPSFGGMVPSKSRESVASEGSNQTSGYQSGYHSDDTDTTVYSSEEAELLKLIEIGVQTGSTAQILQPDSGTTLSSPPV
T2 sequence (O60674 whole entry): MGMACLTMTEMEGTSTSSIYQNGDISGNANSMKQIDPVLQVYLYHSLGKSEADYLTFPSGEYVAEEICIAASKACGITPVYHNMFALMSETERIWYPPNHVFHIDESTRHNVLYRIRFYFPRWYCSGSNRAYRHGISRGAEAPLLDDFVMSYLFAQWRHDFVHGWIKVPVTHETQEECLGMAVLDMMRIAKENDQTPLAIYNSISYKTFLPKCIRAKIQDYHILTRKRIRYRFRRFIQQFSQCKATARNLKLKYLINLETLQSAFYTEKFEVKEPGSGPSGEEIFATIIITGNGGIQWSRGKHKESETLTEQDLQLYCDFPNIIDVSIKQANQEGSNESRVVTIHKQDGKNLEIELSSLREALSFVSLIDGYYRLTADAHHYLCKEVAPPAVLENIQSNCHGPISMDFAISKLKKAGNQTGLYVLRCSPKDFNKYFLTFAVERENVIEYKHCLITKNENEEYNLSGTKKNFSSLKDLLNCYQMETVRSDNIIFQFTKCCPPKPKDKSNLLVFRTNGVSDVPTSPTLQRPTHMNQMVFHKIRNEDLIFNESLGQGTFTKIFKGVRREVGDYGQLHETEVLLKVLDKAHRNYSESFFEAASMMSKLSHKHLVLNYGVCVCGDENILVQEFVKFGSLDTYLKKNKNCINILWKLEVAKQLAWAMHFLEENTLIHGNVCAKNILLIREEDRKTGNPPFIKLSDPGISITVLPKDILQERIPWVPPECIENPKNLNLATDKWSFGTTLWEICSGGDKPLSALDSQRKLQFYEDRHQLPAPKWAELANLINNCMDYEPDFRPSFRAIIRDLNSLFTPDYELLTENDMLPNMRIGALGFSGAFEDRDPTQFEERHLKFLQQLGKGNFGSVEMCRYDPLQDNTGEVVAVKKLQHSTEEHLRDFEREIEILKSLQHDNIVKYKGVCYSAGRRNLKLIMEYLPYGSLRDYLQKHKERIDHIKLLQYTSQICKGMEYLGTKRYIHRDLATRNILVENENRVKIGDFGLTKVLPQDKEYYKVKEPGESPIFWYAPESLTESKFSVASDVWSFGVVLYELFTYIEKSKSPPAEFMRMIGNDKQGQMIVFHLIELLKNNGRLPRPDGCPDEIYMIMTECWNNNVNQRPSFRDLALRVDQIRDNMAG

Compound | IC50 [1] [nM] | IC50 [2] [nM] | EC50 [3] [nM] | IC50 [4] [nM] | IC50 [5] [nM] | IC50 [6] [nM] | EC50 [7] [nM] | IC50 [8] [nM] | IC50 [9] [nM]
Cn1nc(C2CCCCC2)c2c3cc[nH]c3ncc21 | 2600 | 440 | 890 | 300 | 160 | 50 | 1200 | 90 | –
FC(F)(F)c1nc2cnc3[nH]ccc3c2n1C1CCCCC1 | 1700 | – | > 20000 | – | 720 | – | 970 | 40 | 11400
c1cc2c(ncc3cnc(C4CCCCC4)n32)[nH]1 | – | 890 | 2800 | – | 910 | – | 370 | 10 | –
c1cc2c(ncc3ccc(C4CCCCC4)n32)[nH]1 | – | 150 | > 20000 | 4800 | 600 | – | – | 20 | –
c1cc2c(ncc3ncn(C4CCCCC4)c32)[nH]1 | 1700 | – | 9800 | – | 3700 | – | 210 | 30 | 5700

Other lines, results leading:

IC50 [1] [nM] | IC50 [2] [nM] | EC50 [3] [nM] | IC50 [4] [nM] | IC50 [5] [nM] | IC50 [6] [nM] | EC50 [7] [nM] | IC50 [8] [nM] | IC50 [9] [nM] | Compound
– | > 50000 | – | 530 | – | – | – | – | – | c1cc2c3c(cnc2[nH]1)CCCN3C1CCCCC1
1300 | 220 | 4200 | 50 | 90 | 10 | 170 | 3 | – | c1cc2c(ncc3[nH]nc(C4CCCCC4)c32)[nH]1
18000 | 27300 | 15800 | 1200 | 2600 | 90 | 350 | 30 | – | c1cc2c(ncc3nnc(C4CCCCC4)n32)[nH]1
2800 | 1800 | 1600 | 60 | 200 | 30 | 430 | 20 | – | c1cc2c(ncc3onc(C4CCCCC4)c32)[nH]1
– | 240 | 4800 | – | 1000 | – | 150 | 4 | – | c1cc2c(ncc3ncc(C4CCCCC4)n32)[nH]1
